Results taken from paper PMC10613275 (Scientific Reports, 2023).

Assays:
[1] = Cytotoxicity, cell viability (resazurin assay), HeLa9903; assay type: cell-based, human; settings: human, HeLa9903 cells, all concentrations up to 100 µM, vs vehicle control, read-out: Relative viability
HeLa9903 cells = assay: as above; assay type: cell-based, human; settings: 1 nm–100 µM, 1 day

Structure (SMILES): CC(C=O)Cc1ccc(C(C)(C)C)cc1 (centres unmarked) [Lilial, 3-(4-(tert-butyl)phenyl)-2-methylpropanal]
- viability at 1 day [1]: > 80%
- Cytotoxicity result (HeLa9903 cells): Non toxic up to 100 µM
